The values that follow come from patent US9566277B2, “Methods of using phthalazinone ketone derivatives” (Jiangsu Hansoh Pharmaceutical Co., Ltd., priority 2010, dated 2017).

The series can be described thus: Pharmacokinetics assay in SD rats (LC/MS/MS plasma concentration). In kind it is in vivo. To be noted: 15 mg/kg; for Apparent Distribution Volume Vz/F / Clearance CL/F: intravenous injection; for Vd/F / CL/F: both sexes, rat, plasma, oral gavage; for Vd/F: read-out: Apparent Distribution Volume Vz/F; for CL/F: read-out: Clearance CL/F (converted). On the procedure: 24 Healthy adult SD rats, male and female in half, were purchased from SINO-BRITSH SIPPR/BK LAB. ANIMAL LTD., CO, Certificate No.: SCXK (Shanghai) 2003-0002.
The intragastrical administration group: the right amount of tested compounds were weighed and dissolved in 0.5 mL of DMSO, diluted with physiological saline to 10 mL and prepared to 1.5 mg/mL.
The intravenous injection administration group: the right amount of tested compounds were weighed and added into […].
After an overnight fast, 24 healthy adult SD rats, male and female in half, were administered intragastrically at a dose of 15.0 mg/kg and an administration volume of 10 mL/kg.
The intragastrical administration group: blood samples (0.2 mL) were taken from orbital sinus at pre administration and at 0.25 hour, 0.5 hour, 1.0 hour, 1.5 hours, 2.0 hours, 3.0 hours, 4.0 hours, 6.0 hours, 7.0 hours, 9.0 hours, 12.0 hours and 24.0 hours post administration, stored in heparinized tubes and centrifuged for 20 minutes at 3,500 rpm to separate plasma. The plasma samples were stored at −20° C. The rats were fed at 2 hours after administration.
The intravenous injection administration group: blood samples (0.2 mL) were taken from orbital sinus at pre administration and at 2 minutes, 15 minutes, 0.5 hour, 1.0 hour, 2.0 hours, 3.0 hours, 4.0 hours, 6.0 hours, 8.0 hours, 12.0 hours and 24.0 hours post administration, stored in heparinized tubes and centrifuged for 20 minutes at 3,500 rpm to separate plasma. The plasma samples were stored at −20° C.
20 μL of rat blank plasmas taken at various time points after administration were added with 50 μL of internal standard solution and […] of methanol and mixed for 3 minutes by a vortexer. The mixture was centrifuged for 10 minutes at 13,500 rpm. 20 μL of the supernatant was analyzed by LC-MS/MS. The main pharmacokinetic parameters were calculated by software DAS 2.0.

For `CCNC(=O)c1nc(C(F)(F)F)n2c1CN(C(=O)c1cc(Cc3n[nH]c(=O)c4ccccc34)ccc1F)CC2` [Example 7, N-ethyl-7-[2-fluoro-5-[(4-oxo-3H-phthalazin-1-yl)methyl]benzoyl]-3-(trifluoromethyl)-6,8-dihydro-5H-imidazo[1,5-a]pyrazine-1-carboxamide], the “Apparent Distribution Volume Vz/F” value worked out at 0.64 ± 0.19 L/kg, the “Clearance CL/F” value is 8.67 ± 4.83 mL/min/kg, the Vd/F was 103 ± 134 L/kg and the CL/F was 257 mL/min/kg.
For `CNC(=O)c1nc(C(F)(F)F)n2c1CN(C(=O)c1cc(Cc3n[nH]c(=O)c4ccccc34)ccc1F)CC2` [Example 13, 7-[2-fluoro-5-[(4-oxo-3H-phthalazin-1-yl)methyl]benzoyl]-N-methyl-3-(trifluoromethyl)-6,8-dihydro-5H-imidazo[1,5-a]pyrazine-1-carboxamide], the “Apparent Distribution Volume Vz/F” value is 4.70 ± 2.17 L/kg, the “Clearance CL/F” value was found to be 12 ± 7.5 mL/min/kg, the Vd/F turned out to be 49.9 ± 52.9 L/kg and the CL/F was 74.5 mL/min/kg.
As to `O=C(c1cc(Cc2n[nH]c(=O)c3ccccc23)ccc1F)N1CCn2nc(C(F)(F)F)nc2C1` [Example 19, 4-[[4-fluoro-3-[2-(trifluoromethyl)-6,8-dihydro-5H-[1,2,4]triazolo[1,5-a]pyrazine-7-carbonyl]phenyl]methyl]-2H-phthalazin-1-one], the Vd/F was found to be 7.97 ± 5.38 L/kg and the CL/F was 57.5 mL/min/kg.
